Test results reported in paper PMC12155096 (International Journal of Molecular Sciences, 2025).
Where a name gives a salt, the structure may show the parent alone. Read-outs that look alike come from different tables or passages of the source.

Assays:
human CYP2D6 = human CYP2D6 (Homo sapiens, UniProt P10635)
human CYP2C19 [1] = biological target: T1, human CYP2C19 (Homo sapiens, UniProt P33261)
human CYP1A2 = biological target: T2, human CYP1A2 (Homo sapiens, UniProt P05177)
T2 sequence (P05177 1-516): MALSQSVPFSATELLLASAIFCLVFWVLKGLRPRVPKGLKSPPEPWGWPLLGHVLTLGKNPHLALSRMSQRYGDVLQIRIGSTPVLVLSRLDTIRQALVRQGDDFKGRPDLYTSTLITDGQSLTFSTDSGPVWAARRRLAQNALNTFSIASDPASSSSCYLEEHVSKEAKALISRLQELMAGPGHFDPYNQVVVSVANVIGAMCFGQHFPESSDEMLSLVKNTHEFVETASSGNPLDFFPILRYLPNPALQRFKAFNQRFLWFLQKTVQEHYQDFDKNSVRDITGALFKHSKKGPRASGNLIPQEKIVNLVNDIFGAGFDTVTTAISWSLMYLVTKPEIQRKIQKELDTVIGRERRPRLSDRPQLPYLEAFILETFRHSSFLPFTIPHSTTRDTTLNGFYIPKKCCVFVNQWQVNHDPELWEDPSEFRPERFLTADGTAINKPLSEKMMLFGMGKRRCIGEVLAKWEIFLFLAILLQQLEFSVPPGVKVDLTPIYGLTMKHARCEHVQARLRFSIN

human CYP2C9 [2] = biological target: T3, human CYP2C9 (Homo sapiens, UniProt P11712)
T3 sequence (P11712 whole entry): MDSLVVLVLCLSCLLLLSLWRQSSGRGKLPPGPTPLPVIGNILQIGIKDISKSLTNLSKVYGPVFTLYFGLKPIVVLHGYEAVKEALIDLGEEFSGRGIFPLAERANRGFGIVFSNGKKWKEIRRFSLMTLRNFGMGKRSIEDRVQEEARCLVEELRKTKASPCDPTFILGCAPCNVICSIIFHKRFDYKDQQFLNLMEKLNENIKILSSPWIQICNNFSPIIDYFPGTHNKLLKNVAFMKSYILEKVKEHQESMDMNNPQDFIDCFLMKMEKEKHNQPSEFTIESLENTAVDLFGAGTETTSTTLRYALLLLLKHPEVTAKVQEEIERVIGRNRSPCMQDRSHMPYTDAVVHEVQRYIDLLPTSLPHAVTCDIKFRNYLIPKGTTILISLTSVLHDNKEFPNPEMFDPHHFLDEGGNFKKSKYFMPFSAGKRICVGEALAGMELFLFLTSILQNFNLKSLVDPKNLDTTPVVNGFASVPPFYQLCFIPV

human CYP2C9 [3] = biological target: T3, human CYP2C9; assay: biochemical
human CYP2C19 [4] = biological target: T1, human CYP2C19; assay: biochemical
[5] = CYP2C9 AC50 (half-maximal activity concentration)
[6] = CYP2C19 AC50 (half-maximal activity concentration)
[7] = CYP2C9 IC50 (half-maximal inhibitory concentration)

T1 sequence (P33261 whole entry): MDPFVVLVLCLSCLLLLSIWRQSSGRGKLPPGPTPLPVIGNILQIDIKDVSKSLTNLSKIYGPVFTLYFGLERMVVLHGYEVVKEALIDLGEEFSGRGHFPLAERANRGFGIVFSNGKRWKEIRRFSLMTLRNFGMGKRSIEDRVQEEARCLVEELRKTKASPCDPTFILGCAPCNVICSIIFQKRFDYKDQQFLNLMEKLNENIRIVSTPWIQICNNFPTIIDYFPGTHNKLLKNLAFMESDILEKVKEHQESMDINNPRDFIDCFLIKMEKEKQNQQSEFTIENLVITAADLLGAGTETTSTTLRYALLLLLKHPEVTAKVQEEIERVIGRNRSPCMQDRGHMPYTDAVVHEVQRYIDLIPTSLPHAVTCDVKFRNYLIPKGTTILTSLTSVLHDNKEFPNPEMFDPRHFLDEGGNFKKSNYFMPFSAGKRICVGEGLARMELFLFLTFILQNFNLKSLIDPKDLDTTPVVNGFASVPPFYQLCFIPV
human CYP2D6, sequence (P10635 whole entry): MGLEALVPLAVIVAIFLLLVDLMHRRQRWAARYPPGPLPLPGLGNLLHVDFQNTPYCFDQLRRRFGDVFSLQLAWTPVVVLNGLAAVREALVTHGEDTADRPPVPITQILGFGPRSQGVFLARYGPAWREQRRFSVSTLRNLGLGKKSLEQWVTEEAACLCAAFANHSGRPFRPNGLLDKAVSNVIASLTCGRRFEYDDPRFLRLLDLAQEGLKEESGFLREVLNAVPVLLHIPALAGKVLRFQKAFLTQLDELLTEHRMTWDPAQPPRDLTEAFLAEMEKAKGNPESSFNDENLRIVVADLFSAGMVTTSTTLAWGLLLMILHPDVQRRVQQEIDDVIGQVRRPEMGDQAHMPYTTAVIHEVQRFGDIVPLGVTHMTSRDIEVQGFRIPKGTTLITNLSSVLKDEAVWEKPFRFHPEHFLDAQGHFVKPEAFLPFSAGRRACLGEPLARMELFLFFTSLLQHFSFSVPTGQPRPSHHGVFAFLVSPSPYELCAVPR

## Nc1nc2ccccc2n1Cc1ccc(F)cc1
Human CYP2D6
  CYP2D6 Efficacy (in parenthesis): 0.67 ± 0.04 (-102 ± 1) %
  IC50: 0.67 µM
Human CYP2C19 [1]
  CYP2C19 Efficacy (in parenthesis): 17.62 ± 3.69 (-115 ± 18) %
  IC50: 17.6 µM
Human CYP1A2
  CYP1A2 Efficacy (in parenthesis): 19.77 ± 4.14 (-57 ± 9) %
  IC50: 19.8 µM

## CCC(OC(C)=O)C(CC(C)NC)(c1ccccc1)c1ccccc1.Cl (stereo not drawn)
Human CYP2C9 [2]
  CYP2C9 Efficacy (in parenthesis): 63.02 ± 38.37 (-35 ± 6) %
  IC50: 63 µM
Human CYP2D6
  CYP2D6 Efficacy (in parenthesis): 15.52 ± 2.14 (-95 ± 2) %
  IC50: 15.5 µM
Human CYP2C19 [1]
  CYP2C19 Efficacy (in parenthesis): 21.99 ± 10.33 (-95 ± 7) %
  IC50: 22 µM

## Cc1cc(-c2cc(C)c(N)c(C)c2)cc(C)c1N [3,3'.5,5'-Tetramethylbenzidine]
Human CYP1A2
  IC50: 0.45 µM

## CCC(C)(C)c1ccc(O)cc1 [4-(2-Methylbutan-2-yl)phenol]
Human CYP2C9 [3]; [5]
  AC50: 14.8 µM
Human CYP2C19 [4]; [6]
  AC50: 4.21 µM

## Sc1ncnc2nc[nH]c12 [6-Mercaptopurine]
Human CYP2C9 [3]; [5]
  AC50: 22 µM
Human CYP2C19 [4]; [6]
  AC50: 34.7 µM

## COc1c2occc2cc2ccc(=O)oc12 [8-Methoxypsoralen]
Human CYP2C9 [3]; [7]
  IC50: 7.56 µM
Human CYP2C9 [2]; human
  CYP2C9 Efficacy (in parenthesis): 7.56 ± 2.14 (-95 ± 11) %
Human CYP2D6; human
  CYP2D6 Efficacy (in parenthesis): 7.42 ± 0.95 (-106 ± 2) %
Human CYP2C19 [1]; human
  CYP2C19 Efficacy (in parenthesis): 12.67 ± 4.61 (-156 ± 24) %

## C[C@]12CCC(=O)C=C1CC[C@@H]1[C@@H]2CC[C@@]2(C)[C@H]1CC[C@]2(C)O [17-Methyltestosterone]
Human CYP2C9 [3]; [5]
  AC50: 32.7 µM

## CCC(=O)O[C@]1(C(=O)COC)[C@@H](C)C[C@H]2[C@@H]3CCC4=CC(=O)C=C[C@]4(C)[C@@]3(F)[C@@H](O)C[C@@]21C [Amelometasone]
Human CYP2C9 [2]
  IC50: 26 µM
Human CYP2D6
  IC50: 19.5 µM
Human CYP2C19 [1]
  IC50: 43.6 µM

## O=C(Nc1ccc(S(=O)(=O)N2CCOCC2)cc1)c1cc(Cl)ccc1NS(=O)(=O)c1ccc(Cl)s1 [Ataciguat]
Human CYP2C9 [3]
  IC50: 0.05 ± 0.01 µM
Human CYP2C9 [2]; human
  CYP2C9 Efficacy (in parenthesis): 0.05 ± 0.01 (-98 ± 7) %
Human CYP2C19 [1]; human
  CYP2C19 Efficacy (in parenthesis): 41.28 ± 3.36 (-131 ± 15) %
Human CYP2C19 [4]
  IC50: 41.3 ± 3.36 µM

## COC(=O)N[C@H](C(=O)N[C@@H](Cc1ccccc1)[C@@H](O)CN(Cc1ccc(-c2ccccn2)cc1)NC(=O)[C@@H](NC(=O)OC)C(C)(C)C)C(C)(C)C [Atazanavir]
Human CYP2C9 [3]
  IC50: 15.5 µM
Human CYP2C19 [4]
  IC50: 36.4 ± 6.55 µM

## CC(C)(c1ccc(O)cc1)c1ccc(O)cc1 [Bisphenol A]
Human CYP2C9 [3]; [5]
  AC50: 29.1 µM
Human CYP2C19 [4]; [6]
  AC50: 20 µM

## CC(C)C[C@H]1C(=O)N2CCC[C@H]2[C@]2(O)O[C@](NC(=O)[C@@H]3C=C4c5cccc6[nH]c(Br)c(c56)C[C@H]4N(C)C3)(C(C)C)C(=O)N12 [Bromocriptine mesylate]
Human CYP2C9 [3]; [7]
  IC50: 7.32 µM
Human CYP2C19 [4]; CYP2C19 IC50 (half-maximal inhibitory concentration)
  IC50: 20.8 µM

## CC(C)C[C@H](NC(=O)[C@H](CCc1ccccc1)NC(=O)CN1CCOCC1)C(=O)N[C@@H](Cc1ccccc1)C(=O)N[C@@H](CC(C)C)C(=O)[C@@]1(C)CO1 [Carfilzomib]
Human CYP2C9 [3]; [7]
  IC50: 29.2 µM

## O=C1c2ccccc2C(=O)C1C(=O)C(c1ccccc1)c1ccc(Cl)cc1 (stereo not drawn) [Cholorophacinone]
Human CYP2C9 [2]
  IC50: 0.9 µM

## CC1(C)C(C=C(Cl)Cl)C1C(=O)OC(C#N)c1cccc(Oc2ccccc2)c1 (stereo not drawn) [Cypermethrin]
Human CYP2C9 [3]; [5]
  AC50: 11.9 µM
Human CYP2C19 [4]; [6]
  AC50: 24.6 µM

## CC(=O)O[C@]1(C(C)=O)CC[C@H]2[C@@H]3C=C(Cl)C4=CC(=O)[C@@H]5C[C@@H]5[C@]4(C)[C@H]3CC[C@@]21C [Cyproterone acetate]
Human CYP2C9 [3]; [5]
  AC50: 15 µM
Human CYP2D6
  CYP2D6 AC50 (half-maximal activity concentration): Inactive
Human CYP2C19 [1]
  CYP2C19 AC50 (half-maximal activity concentration): Inconclusive inhibitor
Human CYP1A2
  CYP1A2 AC50 (half-maximal activity concentration): Inactive

## CCCCCCCCCC(=O)O [Decanoic acid]
Human CYP2C9 [3]; [5]
  AC50: 69.7 µM

## C[C@]12CCC(=O)C=C1[C@@H]1C[C@@H]1[C@H]1[C@@H]3[C@@H]4C[C@@H]4[C@@]4(CCC(=O)O4)[C@@]3(C)CC[C@@H]12 [Drospirenone]
Human CYP2C9 [3]
  AC50: 26.4 ± 7.81 µM
Human CYP2C19 [4]
  AC50: 1.17 ± 0.35 µM

## CC(=O)Oc1ccc2c(c1)CC[C@@H]1[C@@H]2CC[C@]2(C)[C@@H](O)CC[C@@H]12 [Estradiol acetate]
Human CYP2C19 [4]
  AC50: 20.6 ± 4.65 µM

## CCCSP(=O)(OCC)SCCC [Ethoprop]
Human CYP2C9 [3]; [5]
  AC50: 37 µM
Human CYP2C19 [4]; [6]
  AC50: 20 µM

## O=C(O)Cc1ccccc1Oc1ccc(Cl)cc1Cl [Fenclofenac]
Human CYP2C9 [3]
  AC50: 29.7 ± 12.5 µM

## O=C(O)c1ccccc1Nc1cccc(C(F)(F)F)c1 [Flufenamic acid]
Human CYP2C9 [3]
  AC50: 23.9 ± 9.43 µM

## Fc1ccc(C(c2ccc(F)cc2)N2CCN(C/C=C/c3ccccc3)CC2)cc1 [Flunarizine]
Human CYP2C9 [3]; [5]
  AC50: 14.9 µM

## COc1ccc(S(=O)(=O)Nc2nnc(CC(C)C)s2)cc1 [Glysobuzole]
Human CYP2C9 [3]; [5]
  AC50: 12.5 µM

## Cl[C@H]1[C@H](Cl)[C@@H](Cl)[C@@H](Cl)[C@H](Cl)[C@H]1Cl [Lindane]
Human CYP2C9 [3]; [5]
  AC50: 43.2 µM
Human CYP2C19 [4]; [6]
  AC50: 35.7 µM

## O=C(O)Cn1c(C(=O)Nc2nc(-c3ccccc3Cl)cs2)cc2ccccc21 [Lintitript]
Human CYP2C9 [3]; [5]
  AC50: 35.1 µM

## CN(C)C(=O)C(CCN1CCC(O)(c2ccc(Cl)cc2)CC1)(c1ccccc1)c1ccccc1 [Loperamide hydrochloride]
Human CYP2C19 [4]; [6]
  AC50: 40.5 µM
